# Tests used:
# [1] = target: T1, AdipoR1 (Mus musculus, UniProt Q91VH1); experiment: ULMA-AdipoR interaction assay (ULMA beads, C2C12 myotube membrane extracts, western blot); type: binding; settings: 50 μg membrane extract, 12 hours
# T1 construct: C2C12 myotubes (that express both AdipoR1 and AdipoR2) were incubated with 20 μl control or ULMA-beads; endogenous in cells; host or cells: C2C12 myotubes (mouse), plasma membrane extract
# T1 sequence (Q91VH1 1-375): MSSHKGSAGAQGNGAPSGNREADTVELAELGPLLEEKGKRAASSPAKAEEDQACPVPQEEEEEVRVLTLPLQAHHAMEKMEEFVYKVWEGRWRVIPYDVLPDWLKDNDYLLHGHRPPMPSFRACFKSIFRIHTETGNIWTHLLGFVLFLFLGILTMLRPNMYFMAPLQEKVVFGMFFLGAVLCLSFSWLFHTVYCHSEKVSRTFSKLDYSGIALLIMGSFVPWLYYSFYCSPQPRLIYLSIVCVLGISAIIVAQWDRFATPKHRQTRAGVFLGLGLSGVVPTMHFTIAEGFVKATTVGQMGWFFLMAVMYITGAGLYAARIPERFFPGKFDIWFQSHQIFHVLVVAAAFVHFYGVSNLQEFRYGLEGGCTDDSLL
# Experimental: (§1) B. ULMA interacts with AdipoRs. 20 μl of ULMA beads or control beads were incubated with 50 μg of plasma membrane extracts (prepared using a membrane protein isolation kit; Biomol; according to manufacturer's instructions) prepared from C2C12 myotubes (that expresses both AdipoR1 and AdipoR2) for 12 h on a rotary wheel set at 10 rpm. The supernatant was removed and an aliquot was stored as flowthrough. The pellet was washed 6 times and then the beads were boiled in Lamelli buffer and resolved by 10% denaturing polyacrylamide gel electrophoresis followed by transfer on nitrocellulose membrane and western blotting with anti AdipoR1 or anti-AdipoR2 antibodies. Data represents one of two independent experiments showing identical pattern.
# (§2) To investigate whether this enhancement of PPAR ligand activity by ULMA indeed happens through AdipoRs, physical interaction between ULMA and AdipoRs were assessed. The ULMA was immobilized on agarose beads.
# (§3) Preparation of ULMA Specific Affinity Matrix:
# (§4) ULMA specific Affinity Matrix and Control Matrix were prepared using following protocol.
# (§5) 1. 45 mg and 22.5 mg of epoxy-activated agarose beads (sigma) were weighed and put separately in two 1.5 ml eppendorf tubes. Tubes were labeled as tube-1 and tube-2. 2. The beads were washed 6×, 1 ml each, with double distilled water (DDW). […] At this stage beads were ready for incubation with protein source. […]
# [2] = target: T2, AdipoR2 (Mus musculus, UniProt Q8BQS5); experiment: as above; type: binding; settings: 50 μg membrane extract, 12 hours
# T2 construct: C2C12 myotubes (that express both AdipoR1 and AdipoR2) were incubated with 20 μl control or ULMA-beads; endogenous in cells; host or cells: C2C12 myotubes (mouse), plasma membrane extract
# T2 sequence (Q8BQS5 1-386): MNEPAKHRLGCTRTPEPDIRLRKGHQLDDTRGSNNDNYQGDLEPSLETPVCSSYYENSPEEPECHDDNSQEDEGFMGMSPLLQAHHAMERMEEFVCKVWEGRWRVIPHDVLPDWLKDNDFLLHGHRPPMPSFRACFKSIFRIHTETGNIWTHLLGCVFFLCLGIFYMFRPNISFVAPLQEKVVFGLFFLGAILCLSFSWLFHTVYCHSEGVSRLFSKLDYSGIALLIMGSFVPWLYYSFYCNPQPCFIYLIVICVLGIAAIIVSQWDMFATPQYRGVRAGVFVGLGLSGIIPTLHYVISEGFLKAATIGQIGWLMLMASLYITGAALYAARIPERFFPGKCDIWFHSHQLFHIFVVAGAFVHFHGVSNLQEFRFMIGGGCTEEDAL
# Experimental: as §1, §2, §3, §4, §5
structure (smiles),measurement,setting,value
"O=C1c2c(cc(O)c([C@@H]3O[C@H](CO)[C@@H](O)[C@H](O)[C@H]3O)c2O)O[C@@H](c2ccc(O)c(O)c2)[C@@H]1O [ULMA, (2S,3S)-(+)-3′,4′,5,7-tetrahydroxydihydroflavonol-6-C-β-D-glucopyranoside]",AdipoR1 detection on ULMA beads vs control beads,[1],detected on ULMA beads
same,AdipoR2 detection on ULMA beads vs control beads,[2],detected on ULMA beads

# Source: patent US20160193240A1, “Ulmoside-A: Useful For Prevention Or Cure Of Metabolic Diseases” (COUNCIL OF SCIENTIFIC & INDUSTRIAL RESEARCH, priority 2013, published 2016)
